≈ marks a conversion by molar mass, not a printed value.
Legend:
Test in all cases: ≥ marks a high value that may be exact or a test limit, other limits are often not marked, values filed in µg/mL are converted to µM
[1] = test system: Listeria monocytogenes ATCC 19115
[2] = test system: Escherichia coli ATCC 25922
[3] = test system: Pseudomonas aeruginosa ATCC 27853
[4] = test system: Cryptococcus neoformans ATCC 208821
[5] = test system: Klebsiella pneumoniae ATCC 13883
Acinetobacter baumannii = test system: Acinetobacter baumannii
[6] = test system: Bacillus subtilis ATCC 6051
Klebsiella pneumoniae = test system: Klebsiella pneumoniae
[7] = test system: Klebsiella pneumoniae ATCC 700603
[8] = test system: Candida albicans ATCC 90028
[9] = test system: Klebsiella pneumoniae ATCC BAA-2146
[10] = test system: Acinetobacter baumannii ATCC 19606
[11] = test system: Staphylococcus aureus ATCC 43300
Pseudomonas aeruginosa = test system: Pseudomonas aeruginosa
[12] = test system: Staphylococcus aureus ATCC 25923
[13] = test system: Candida albicans ATCC 2002
Escherichia coli ML-35p = test system: Escherichia coli ML-35p
Bacillus subtilis = test system: Bacillus subtilis
Staphylococcus aureus = test system: Staphylococcus aureus
Streptococcus sanguinis = test system: Streptococcus sanguinis
[14] = test system: Salmonella typhimurium CIP 103446
[15] = test system: Escherichia coli CIP 54.8T
[16] = test system: Listeria monocytogenes CIP 110871
[17] = test system: Enterococcus faecalis CIP 76.117
[18] = test system: Bacillus megaterium CIP 51.17
[19] = test system: Aeromonas salmonicida CIP 103209T
[20] = test system: Staphylococcus aureus CIP 53.156
Escherichia coli = test system: Escherichia coli
[21] = test system: Salmonella enterica subsp. enterica serovar Typhimurium ATCC 14028
[22] = test system: Enterococcus faecalis ATCC 29212
[23] = test system: Staphylococcus aureus ATCC BAA-44
[24] = test system: Staphylococcus epidermidis ATCC 51625
[25] = test system: Streptococcus pyogenes ATCC 19615
[26] = test system: Listeria monocytogenes EGD

Work on `CC(C)C[C@H](NC(=O)[C@H](Cc1ccccc1)NC(=O)[C@@H]1CCCN1C(=O)[C@@H]1CCCN1C(=O)[C@H](CC(N)=O)NC(=O)[C@@H](NC(=O)[C@@H](NC(=O)[C@@H]1CCCN1C(=O)[C@@H](N)[C@@H](C)O)C(C)C)C(C)C)C(=O)N[C@@H](CCC(N)=O)C(=O)N[C@@H](CCC(N)=O)C(=O)N[C@H](C(N)=O)[C@@H](C)O` [TPVVNPPFLQQT] yielded an MIC [1] of at least 382 µM.

For `CC[C@H](C)[C@@H]1NC(=O)CNC(=O)[C@H](CCCN=C(N)N)NC(=O)[C@H](Cc2ccc(O)cc2)NC(=O)[C@@H]2CSSC[C@H](NC1=O)C(=O)N[C@@H](Cc1ccc(O)cc1)C(=O)N[C@@H](C)C(=O)N[C@@H](CCCN=C(N)N)C(=O)N[C@H](C(=O)N[C@@H](CCCN=C(N)N)C(=O)O)CSSC[C@H](NC(=O)[C@H](Cc1c[nH]c3ccccc13)NC(=O)[C@@H](N)CCCCN)C(=O)N[C@@H](Cc1ccccc1)C(=O)N[C@@H](CCCN=C(N)N)C(=O)N[C@@H](C(C)C)C(=O)N2` [KWCFRVCYRGICYARCR], the MIC [2] was 0.0572 µM (≈ 0.125 µg/mL), the MIC [3] was 0.0572 µM (≈ 0.125 µg/mL) and the MIC [4] was 0.115 µM (≈ 0.25 µg/mL). For the same molecule, the MIC [5] was 0.0275 µM (≈ 0.0599 µg/mL), the MIC (Acinetobacter baumannii) was 0.0572 µM (≈ 0.125 µg/mL) and the MIC [6] was 0.0572 µM (≈ 0.125 µg/mL). For the same molecule, the MIC (Klebsiella pneumoniae) was 0.458 µM (≈ 0.998 µg/mL), the MIC [7] was 0.229 µM (≈ 0.499 µg/mL) and the MIC [8] was 3.66 µM (≈ 7.99 µg/mL). For the same molecule, the MIC [9] was 0.115 µM (≈ 0.25 µg/mL), the MIC [10] was 0.0572 µM (≈ 0.125 µg/mL) and the MIC [11] was 0.229 µM (≈ 0.499 µg/mL). It also gave an MIC (Pseudomonas aeruginosa) of 0.115 µM (≈ 0.25 µg/mL).

Molecule `CC[C@H](C)[C@H](NC(=O)[C@H](C)NC(=O)[C@@H](NC(=O)[C@@H](NC(=O)[C@H](CCCCN)NC(=O)[C@@H](NC(=O)[C@H](CCCCN)NC(=O)[C@H](CC(=O)O)NC(=O)[C@H](CCCN=C(N)N)NC(=O)[C@@H](NC(=O)[C@@H](N)CO)[C@@H](C)CC)[C@@H](C)CC)[C@@H](C)O)[C@@H](C)CC)C(=O)N[C@@H](CC(=O)O)C(=O)N[C@@H](CC(C)C)C(=O)N[C@@H](C)C(=O)N[C@@H](CCCCN)C(=O)N[C@@H](CO)C(=O)N[C@@H](C)C(=O)NCC(=O)N[C@H](C(=O)NCC(=O)N[C@H](C(=O)N[C@@H](CC(C)C)C(=O)N[C@@H](CCCCN)C(=O)N[C@H](C(=O)N[C@@H](CC(C)C)C(=O)N[C@H](C(=O)N[C@H]1CSSC[C@@H](C(=O)O)NC(=O)[C@H](CO)NC(=O)[C@H](CCCCN)NC(=O)[C@H](CC(=O)O)NC(=O)[C@H](CC(C)C)NC(=O)[C@H](CCCCN)NC1=O)[C@@H](C)CC)[C@@H](C)O)C(C)C)[C@@H](C)O` [SIRDKIKTIAIDLAKSAGTGVLKTLICKLDKSC] has an MIC [12] of 1.34 µM (≈ 4.69 µg/mL), an MIC [3] of over 28.5 µM and an MIC [13] of 1.61 µM (≈ 5.63 µg/mL). For the same molecule, the MIC (Escherichia coli ML-35p) was 7.13 µM (≈ 25 µg/mL) and the MIC (Bacillus subtilis) was 2.68 µM (≈ 9.37 µg/mL).

`CC(C)C[C@H](N)C(=O)N[C@@H](Cc1ccccc1)C(=O)N[C@@H](Cc1ccccc1)C(=O)N[C@@H](Cc1ccccc1)C(=O)N[C@@H](Cc1ccccc1)C(=O)N[C@@H](Cc1ccccc1)C(N)=O` [LFFFFF] was tested, and the MIC (Staphylococcus aureus) was 29.4 µM (≈ 25.5 µg/mL) and the MIC (Streptococcus sanguinis) was at least 32.6 µM.

Work on `CC[C@H](C)[C@H](NC(=O)[C@H](CC(C)C)NC(=O)[C@H](Cc1cnc[nH]1)NC(=O)[C@H](Cc1ccccc1)NC(=O)[C@H](CO)NC(=O)[C@@H](NC(=O)[C@H](CO)NC(=O)CN)[C@@H](C)O)C(=O)N[C@@H](Cc1ccc(O)cc1)C(=O)N[C@@H](CC(N)=O)C(=O)N[C@@H](CCCCN)C(=O)N[C@@H](Cc1c[nH]c2ccccc12)C(=O)N[C@@H](Cc1ccccc1)C(=O)N[C@@H](C)C(=O)N[C@H](C(=O)N[C@@H](CCCCN)C(=O)N[C@@H](CCCN=C(N)N)C(=O)N[C@@H](CCCN=C(N)N)C(=O)N[C@@H](CCCN=C(N)N)C(=O)N[C@@H](CCCCN)C(=O)N[C@@H](CCCN=C(N)N)C(=O)O)C(C)C` [GSTSFHLIYNKWFAVKRRRKR] yielded an MIC [14] of at least 50 µM, an MIC [15] of 3.16 µM (≈ 8.38 µg/mL) and an MIC [16] of at least 35.4 µM. The MIC [17] was at least 86.6 µM, the MIC [18] was 3.16 µM (≈ 8.38 µg/mL) and the MIC [19] was 5 µM (≈ 13.3 µg/mL). It also gave an MIC [20] of 5.1 µM (≈ 13.5 µg/mL).

`CC(C)C[C@H](NC(=O)[C@H](CO)NC(=O)[C@H](CCCN=C(N)N)NC(=O)[C@H](CCCCN)NC(=O)[C@@H](NC(=O)[C@@H](NC(=O)CNC(=O)[C@H](CCCN=C(N)N)NC(=O)[C@H](Cc1cnc[nH]1)NC(=O)[C@H](Cc1c[nH]c2ccccc12)NC(=O)[C@H](Cc1ccccc1)NC(=O)[C@H](Cc1cnc[nH]1)NC(=O)[C@H](Cc1ccc(O)cc1)NC(=O)[C@@H](N)Cc1ccc(O)cc1)C(C)C)[C@@H](C)O)C(=O)N[C@@H](CO)C(=O)N1CCC[C@H]1C(=O)N[C@@H](Cc1cnc[nH]1)C(=O)N[C@@H](CCCN=C(N)N)C(=O)N1CCC[C@H]1C(=O)N[C@@H](CCCN=C(N)N)C(=O)N[C@@H](Cc1cnc[nH]1)C(=O)N[C@@H](CO)C(=O)N[C@@H](CCCN=C(N)N)C(=O)O` [YYHFWHRGVTKRSLSPHRPRHSR] showed an MIC [12] of 4 µM (≈ 11.8 µg/mL), an MIC (Escherichia coli) of 4 µM (≈ 11.8 µg/mL) and an MIC [3] of 4 µM (≈ 11.8 µg/mL). For the same molecule, the MIC [21] was 4 µM (≈ 11.8 µg/mL), the MIC [5] was 2 µM (≈ 5.92 µg/mL) and the MIC [22] was 4 µM (≈ 11.8 µg/mL). For the same molecule, the MIC [23] was 6 µM (≈ 17.8 µg/mL), the MIC [24] was 6 µM (≈ 17.8 µg/mL) and the MIC [25] was 6 µM (≈ 17.8 µg/mL). The MIC (Bacillus subtilis) was 4 µM (≈ 11.8 µg/mL).

Molecule `CC(C)C[C@H](NC(=O)[C@H](CC(C)C)NC(=O)[C@H](CCC(N)=O)NC(=O)[C@H](CCCCN)NC(=O)[C@H](CC(C)C)NC(=O)[C@H](CCCCN)NC(=O)[C@H](CCCCN)NC(=O)[C@@H](N)CC(C)C)C(=O)NCC(=O)N[C@@H](CCCCN)C(=O)N[C@@H](CC(C)C)C(=O)N[C@@H](CO)C(=O)N[C@@H](CCC(=O)O)C(=O)N[C@@H](Cc1ccccc1)C(=O)N[C@@H](C)C(=O)N[C@@H](C)C(=O)N[C@@H](C)C(=O)N[C@@H](Cc1ccccc1)C(=O)N[C@H](C(=O)N[C@@H](C)C(N)=O)C(C)C` [LKKLKQLLGKLSEFAAAFVA] has an MIC [12] of 32 µM (≈ 69.6 µg/mL), an MIC [2] of 32 µM (≈ 69.6 µg/mL) and an MIC [3] of 16 µM (≈ 34.8 µg/mL). It also gave an MIC [26] of 8 µM (≈ 17.4 µg/mL).

`CC(C)C[C@H](NC(=O)[C@H](C)NC(=O)[C@@H](NC(=O)[C@H](C)NC(=O)[C@H](CC(C)C)NC(=O)[C@H](CCCCN)NC(=O)[C@H](Cc1ccccc1)NC(=O)[C@H](CCCCN)NC(=O)[C@H](C)NC(=O)[C@@H](N)CO)C(C)C)C(=O)NCC(=O)N[C@@H](CCC(N)=O)C(=O)N[C@@H](Cc1ccccc1)C(=O)N[C@@H](CCCCN)C(=O)N[C@@H](CCC(=O)O)C(=O)N[C@@H](CCCCN)C(=O)N[C@@H](CC(C)C)C(=O)N[C@@H](CC(C)C)C(=O)N[C@@H](CC(C)C)C(=O)N[C@@H](C)C(N)=O` [SAKFKLAVALGQFKEKLLLA] was tested, and the MIC [26] was at least 128 µM.

`NC(=O)[C@H](Cc1ccccc1)NC(=O)[C@H](Cc1ccccc1)NC(=O)[C@H](Cc1ccccc1)NC(=O)[C@H](Cc1ccccc1)NC(=O)[C@H](Cc1ccccc1)NC(=O)[C@H](Cc1ccccc1)NC(=O)[C@@H](N)Cc1ccccc1` [FFFFFFF] gave an MIC (Staphylococcus aureus) of 3.3 µM (≈ 3.46 µg/mL) and an MIC (Streptococcus sanguinis) of 3.3 µM (≈ 3.46 µg/mL).

Reference: DBAASP
